Test results reported in ChEMBL document CHEMBL4364246, “Synthesis and biological evaluation of 5-aminoethyl benzophenanthridone derivatives as DNA topoisomerase IB inhibitors” (Eur J Med Chem, 2019).

Key:
[1] = biological target: T1, DNA topoisomerase 1 (Homo sapiens) (UniProt P11387); assay: Inhibition of recombinant TOP1 (unknown origin) using 3'-[32P]-labeled 117 bp DNA oligonucleotide assessed as TOP1-mediated DNA cleavage by measuring induction and stabilization of cleavage sites 17, 35 and 79 incubated for 20 mins by PAGE analysis
T1 sequence (whole entry): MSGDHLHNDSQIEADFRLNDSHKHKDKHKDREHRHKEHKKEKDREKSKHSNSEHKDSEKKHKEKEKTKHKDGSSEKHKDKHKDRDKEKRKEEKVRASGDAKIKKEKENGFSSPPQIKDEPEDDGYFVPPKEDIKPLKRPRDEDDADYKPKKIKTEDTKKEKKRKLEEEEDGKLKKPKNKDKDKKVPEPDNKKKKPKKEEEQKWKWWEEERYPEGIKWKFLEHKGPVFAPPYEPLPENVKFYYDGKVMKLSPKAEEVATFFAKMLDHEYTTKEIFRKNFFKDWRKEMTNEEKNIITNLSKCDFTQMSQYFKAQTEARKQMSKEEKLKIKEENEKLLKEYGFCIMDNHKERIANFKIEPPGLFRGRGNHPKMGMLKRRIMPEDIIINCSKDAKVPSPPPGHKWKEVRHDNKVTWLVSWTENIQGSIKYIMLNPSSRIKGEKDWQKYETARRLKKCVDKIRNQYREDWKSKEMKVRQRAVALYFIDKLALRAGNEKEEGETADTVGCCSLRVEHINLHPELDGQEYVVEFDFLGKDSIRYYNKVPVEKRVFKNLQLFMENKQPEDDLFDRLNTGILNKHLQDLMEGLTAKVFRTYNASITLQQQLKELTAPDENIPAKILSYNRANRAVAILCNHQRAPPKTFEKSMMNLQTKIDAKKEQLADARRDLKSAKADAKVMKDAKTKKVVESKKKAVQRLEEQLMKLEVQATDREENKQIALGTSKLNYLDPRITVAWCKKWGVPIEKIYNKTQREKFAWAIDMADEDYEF

[2] = system: K562; assay: Growth inhibition of human K562 cells incubated for 48 hrs by sulforhodamine B assay; format: functional; settings: K562, 48 h
[3] = system: MOLT-4; assay: Growth inhibition of human MOLT4 cells incubated for 48 hrs by sulforhodamine B assay; format: functional; settings: MOLT-4, 48 h
[4] = system: RPMI-8226; assay: Growth inhibition of human RPMI8226 cells incubated for 48 hrs by sulforhodamine B assay; format: functional; settings: RPMI-8226, 48 h
[5] = system: SR; assay: Growth inhibition of human SR cells incubated for 48 hrs by sulforhodamine B assay; format: functional
[6] = system: EKVX; assay: Growth inhibition of human EKVX cells incubated for 48 hrs by sulforhodamine B assay; format: functional
[7] = system: HOP-62; assay: Growth inhibition of human HOP62 cells incubated for 48 hrs by sulforhodamine B assay; format: functional; settings: HOP-62, 48 h
[8] = system: HOP-92; assay: Growth inhibition of human HOP92 cells incubated for 48 hrs by sulforhodamine B assay; format: functional; settings: HOP-92, 48 h
[9] = system: NCI-H226; assay: Growth inhibition of human NCI-H226 cells incubated for 48 hrs by sulforhodamine B assay; format: functional; settings: NCI-H226, 48 h
[10] = system: NCI-H322M; assay: Growth inhibition of human NCI-H322M cells incubated for 48 hrs by sulforhodamine B assay; format: functional
[11] = system: NCI-H460; assay: Growth inhibition of human NCI-H460 cells incubated for 48 hrs by sulforhodamine B assay; format: functional; settings: NCI-H460, 48 h
[12] = system: SF-268; assay: Growth inhibition of human SF268 cells incubated for 48 hrs by sulforhodamine B assay; format: functional; settings: SF-268, 48 h
[13] = system: SF-539; assay: Growth inhibition of human SF539 cells incubated for 48 hrs by sulforhodamine B assay; format: functional; settings: SF-539, 48 h
[14] = system: SNB-19; assay: Growth inhibition of human SNB19 cells incubated for 48 hrs by sulforhodamine B assay; format: functional; settings: SNB-19, 48 h
[15] = system: U-251; assay: Growth inhibition of human U251 cells incubated for 48 hrs by sulforhodamine B assay; format: functional; settings: U-251, 48 h
[16] = system: LOX IMVI; assay: Growth inhibition of human LOXIMVI cells incubated for 48 hrs by sulforhodamine B assay; format: functional
[17] = system: Malme-3M; assay: Growth inhibition of human MALME-3M cells incubated for 48 hrs by sulforhodamine B assay; format: functional
[18] = system: M14; assay: Growth inhibition of human M14 cells incubated for 48 hrs by sulforhodamine B assay; format: functional; settings: M14, 48 h
[19] = system: SK-MEL-2; assay: Growth inhibition of human SK-MEL-2 cells incubated for 48 hrs by sulforhodamine B assay; format: functional; settings: SK-MEL-2, 48 h
[20] = system: SK-MEL-28; assay: Growth inhibition of human SK-MEL-28 cells incubated for 48 hrs by sulforhodamine B assay; format: functional; settings: SK-MEL-28, 48 h
[21] = system: SK-MEL-5; assay: Growth inhibition of human SK-MEL-5 cells incubated for 48 hrs by sulforhodamine B assay; format: functional; settings: SK-MEL-5, 48 h
[22] = system: UACC-62; assay: Growth inhibition of human UACC62 cells incubated for 48 hrs by sulforhodamine B assay; format: functional; settings: UACC-62, 48 h
[23] = system: HCT-116; assay: Growth inhibition of human HCT116 cells incubated for 48 hrs by sulforhodamine B assay; format: functional; settings: HCT-116, 48 h
[24] = system: HT-29; assay: Growth inhibition of human HT-29 cells incubated for 48 hrs by sulforhodamine B assay; format: functional; settings: HT-29, 48 h
[25] = system: CAKI-1; assay: Growth inhibition of human Caki1 cells incubated for 48 hrs by sulforhodamine B assay; format: functional; settings: CAKI-1, 48 h
[26] = system: RXF 393; assay: Growth inhibition of human RXF393 cells incubated for 48 hrs by sulforhodamine B assay; format: functional; settings: RXF 393, 48 h
[27] = system: UO-31; assay: Growth inhibition of human UO31 cells incubated for 48 hrs by sulforhodamine B assay; format: functional; settings: UO-31, 48 h
[28] = system: BT-549; assay: Growth inhibition of human BT549 cells incubated for 48 hrs by sulforhodamine B assay; format: functional; settings: BT-549, 48 h
[29] = system: T47D; assay: Growth inhibition of human T47D cells incubated for 48 hrs by sulforhodamine B assay; format: functional
[30] = system: IGROV-1; assay: Growth inhibition of human IGROV1 cells incubated for 48 hrs by sulforhodamine B assay; format: functional; settings: IGROV-1, 48 h
[31] = system: OVCAR-3; assay: Growth inhibition of human OVCAR3 cells incubated for 48 hrs by sulforhodamine B assay; format: functional; settings: OVCAR-3, 48 h
[32] = system: OVCAR-4; assay: Growth inhibition of human OVCAR4 cells incubated for 48 hrs by sulforhodamine B assay; format: functional; settings: OVCAR-4, 48 h
[33] = system: OVCAR-5; assay: Growth inhibition of human OVCAR5 cells incubated for 48 hrs by sulforhodamine B assay; format: functional; settings: OVCAR-5, 48 h
[34] = system: PC-3; assay: Growth inhibition of human PC3 cells incubated for 48 hrs by sulforhodamine B assay; format: functional; settings: PC-3, 48 h
[35] = system: DU-145; assay: Growth inhibition of human DU145 cells incubated for 48 hrs by sulforhodamine B assay; format: functional; settings: DU-145, 48 h
[36] = system: HCT-116; assay: cells; settings: Homo sapiens, HCT-116, 72 h

Compound | Activity [1] | GI50 [2] | GI50 [3] | GI50 [4] | GI50 [5] | GI50 [6] | GI50 [7] | GI50 [8] | GI50 [9] | GI50 [10] | GI50 [11] | GI50 [12] | GI50 [13] | GI50 [14] | GI50 [15] | GI50 [16] | GI50 [17] | GI50 [18] | GI50 [19] | GI50 [20] | also measured
COc1cc2c(=O)n(CCN)c3c4cc5c(cc4ccc3c2cc1OC)OCO5 | Dose-dependent effect | 161 nM | 63.3 nM | 257 nM | 90.7 nM | 1360 nM | 399 nM | 3560 nM | 1340 nM | 990 nM | 230 nM | 442 nM | 1060 nM | 398 nM | 260 nM | 246 nM | 613 nM | 324 nM | 3010 nM | 3050 nM | GI50 [21]: 614 nM; GI50 [22]: 278 nM; GI50 [23]: 285 nM; GI50 [24]: 168 nM; GI50 [25]: 295 nM; GI50 [26]: 929 nM; GI50 [27]: 350 nM; GI50 [28]: 918 nM; GI50 [29]: 368 nM; GI50 [30]: 500 nM; GI50 [31]: 826 nM; GI50 [32]: 782 nM; GI50 [33]: 1200 nM; GI50 [34]: 532 nM; GI50 [35]: 527 nM; GI50 [36]: 290 nM
CNCCn1c(=O)c2cc(OC)c(OC)cc2c2ccc3cc4c(cc3c21)OCO4 | Dose-dependent effect | 39.4 nM | 23.4 nM | 76.3 nM | 17.3 nM | 202 nM | 43.9 nM | 184 nM | 172 nM | 147 nM | 21.2 nM | 90.3 nM | 124 nM | 116 nM | 39.4 nM | 38.9 nM | 174 nM | 58.1 nM | 393 nM | 573 nM | GI50 [21]: 90.9 nM; GI50 [22]: 45.1 nM; GI50 [23]: 51.5 nM; GI50 [24]: 50.8 nM; GI50 [25]: 64.4 nM; GI50 [26]: 160 nM; GI50 [27]: 104 nM; GI50 [28]: 202 nM; GI50 [29]: 75.7 nM; GI50 [30]: 145 nM; GI50 [31]: 166 nM; GI50 [32]: 154 nM; GI50 [33]: 183 nM; GI50 [34]: 112 nM; GI50 [35]: 130 nM; GI50 [36]: 36 nM
